Laboratory results from the NIST ThermoML archive (doi:10.1016/j.jct.2005.08.005).

Assay: refractive index (other wavelength) (dimensionless); xn = mol fraction of the nth substance listed
Settings: 101.3 kPa, Liquid, Wavelength=632.8 nm, Method described in references 3 and 4 of the article

N#Cc1ccccc1 [benzonitrile] + CCCCCCCCCCCCCCCC
Settings | refractive index
294.62 K, x1 = 1 | 1.5246
295.4 K, x1 = 0.0997 | 1.4353
296.2 K, x1 = 0.1982 | 1.4385
296.22 K, x1 = 0.3022 | 1.4432
296.49 K, x1 = 0.8855 | 1.499
296.97 K, x1 = 1 | 1.5235
297.19 K, x1 = 0.0997 | 1.4346
297.59 K, x1 = 0.1982 | 1.438
298.03 K, x1 = 0.3972 | 1.4472
298.19 K, x1 = 0.3022 | 1.4423
298.57 K, x1 = 0.8855 | 1.498
299.03 K, x1 = 0.0997 | 1.4338
299.08 K, x1 = 1 | 1.5224
299.56 K, x1 = 0.3972 | 1.4466
299.75 K, x1 = 0.3022 | 1.4416
299.78 K, x1 = 0.1982 | 1.437
300.77 K, x1 = 0.0997 | 1.433
301.05 K, x1 = 0.3022 | 1.441
301.05 K, x1 = 0.8855 | 1.4969
301.17 K, x1 = 0.1982 | 1.4365
301.26 K, x1 = 0.3972 | 1.4459
301.39 K, x1 = 1 | 1.5213
301.64 K, x1 = 0.1982 | 1.4362
302.7 K, x1 = 0.0997 | 1.4323
302.75 K, x1 = 0.3972 | 1.4452
302.86 K, x1 = 0.3022 | 1.4403
302.96 K, x1 = 0.4976 | 1.4519
303.42 K, x1 = 1 | 1.5203
303.45 K, x1 = 0.7947 | 1.481
303.59 K, x1 = 0.8855 | 1.4957
303.7 K, x1 = 0.4976 | 1.4515
303.82 K, x1 = 0.1982 | 1.4353
304.08 K, x1 = 0.0997 | 1.4317
304.21 K, x1 = 0.3972 | 1.4446
304.25 K, x1 = 0.3022 | 1.4397
304.25 K, x1 = 0.4976 | 1.4512
304.4 K, x1 = 0.7947 | 1.4806
304.69 K, x1 = 0.595 | 1.4585
304.73 K, x1 = 0.4976 | 1.451
305.22 K, x1 = 0.7947 | 1.4802
305.41 K, x1 = 0.3972 | 1.444
305.44 K, x1 = 0.6854 | 1.4668
305.47 K, x1 = 0.595 | 1.4582
305.66 K, x1 = 0.1982 | 1.4346
305.66 K, x1 = 0.4976 | 1.4507
305.86 K, x1 = 0.0997 | 1.4309
305.86 K, x1 = 0.3022 | 1.439
305.89 K, x1 = 0.7947 | 1.4799
305.92 K, x1 = 1 | 1.5191
305.98 K, x1 = 0.8855 | 1.4946
306.25 K, x1 = 0.6854 | 1.4665
306.37 K, x1 = 0.595 | 1.4578
306.66 K, x1 = 0.6854 | 1.4663
306.68 K, x1 = 0.7947 | 1.4795
307.36 K, x1 = 0.595 | 1.4574
307.66 K, x1 = 0.6854 | 1.4658
307.86 K, x1 = 0.8855 | 1.4937
308.18 K, x1 = 0.595 | 1.457
308.42 K, x1 = 0.6854 | 1.4655
